Measured values reported in patent US20230070338A1, “SHP2 Inhibitor Dosing and Methods of Treating Cancer” (Revolution Medicines, Inc., priority 2020, published 2023).
Where two headings read alike, the source gives them in different places.

How the values were obtained:
[1] = system: KRASG12C pancreatic tumor cell line MIA PaCa-2; assay: Apoptosis in vivo in MIA PaCa-2; details: single dose of 30 mg/kg
[2] = RMC-4630-01 phase 1 study: pharmacokinetics in patients; format: in vivo, human; details: for AUC(0-t) / Cmax / Tmax / half-life: human, plasma, oral; for Cmax: read-out: Cmax [Mean(CV %)]; for Tmax: read-out: Median Tmax (range)
Excerpt: RMC-4630-01 is a phase 1 dose escalation study in patients with advanced cancers that evaluates the safety, pharmacokinetics and pharmacodynamic effects of RMC-4630 as a single agent under two different dose administration schedules; daily dosing and twice weekly dosing.
The RMC-4630-01 study was initially designed to evaluate two different schedules: a daily dosing schedule and an intermittent dosing schedule (D1, D4 of every week).

[3] = system: ERK phosphorylation (pERK); assay: Pharmacodynamic effect on ERK activation in patients (blood cells, tumor biopsies); format: in vivo, human
Excerpt: FIG. 7A is a graph depicting the H-Score for nuclear and cytoplasmic ERK phosphorylation in cells obtained from each of four patients following treatment with RMC-4630 on a daily dosing schedule provided in FIG. 7C. H score is the product of percentage of tumor cells staining positive for pERK and the intensity of staining per cell. Both nuclear and cytoplasmic pERK are shown.
Pharmacodynamic effects of RMC-4630, comparison of daily and intermittent schedules. Activation of the protein ERK, which is an important protein in the RAS signaling pathway and a substrate for MEK, is a good surrogate for the inhibition of pathway activity by a SHP2 inhibitor. The pharmacodynamic effects of RMC-4630 on activation of ERK were studied in the blood cells of patients being treated with RMC-4630. […] These effects are consistent with engagement and inhibition of the SHP2 target and downstream RAS signaling by RMC-4630.
Phosphorylation of ERK has been assessed in tumor before, and while receiving, RMC-4630 (FIG. 7).

[4] = 140 mg, 140 mg twice weekly (D1, D4), Cycle/Day 1/1
[5] = 140 mg, 140 mg twice weekly (D1, D4), Cycle/Day 1/15
[6] = 200 mg, 200 mg twice weekly (D1, D4), Cycle/Day 1/1
[7] = 200 mg, 200 mg twice weekly (D1, D4), Cycle/Day 1/15

Cc1nc(N2CCC3(CC2)CO[C@@H](C)[C@H]3N)c(CO)nc1Sc1ccnc(N)c1Cl [RMC-4630]
apoptosis in vivo [1]: induce apoptosis
total exposure over a 24 hour period ([2]; 60 mg daily (putative MTD)): 14.6 µM·h
Mean accumulation (AUC0-24 ratio) ([2]; 140 mg twice weekly (D1, D4), Cycle/Day 1/15): 1.3
Cmax concentrations compared with the apoptotic threshold ([2]; 200 mg D1, D2): generally above
trough concentrations towards the end of the week ([2]; 200 mg D1, D2): below those thought to be required for normal tissue recovery
Mean accumulation (AUC0-24 ratio) ([2]; 200 mg twice weekly (D1, D2), Cycle/Day 1/15): 1.0
Mean accumulation (AUC0-24 ratio) ([2]; 200 mg twice weekly (D1, D4), Cycle/Day 1/15): 1.1
plasma exposure compared with range active in preclinical models ([2]; both dose levels (140 mg, 200 mg), D1, D4 schedule): within the range anticipated to be biologically active
exposure versus dose ([2]; daily dosing): increased approximately proportionally with increasing dose
time to steady state of plasma concentrations ([2]; daily dosing): ≤ 22 days
AUC(0-t) ([2]; 140 mg, 140 mg twice weekly (D1, D4), Cycle/Day 1/1, read-out: AUC0-24 [Mean(CV %)]): 10.8 µM·h
AUC(0-t) ([2]; 140 mg, 140 mg twice weekly (D1, D4), Cycle/Day 1/1, read-out: AUC0-72 [Mean(CV %)]): 19.7 µM·h
Cmax [2, 4]: 915 nM
Tmax [2, 4]: 2 h
half-life ([2]; 140 mg, 140 mg twice weekly (D1, D4), Cycle/Day 1/1, read-out: Median t1/2 (range) (converted)): 28 h
AUC(0-t) ([2]; 140 mg, 140 mg twice weekly (D1, D4), Cycle/Day 1/15, read-out: AUC0-24 [Mean(CV %)]): 14 µM·h
Cmax [2, 5]: 935 nM
Tmax [2, 5]: 2 h
half-life ([2]; 140 mg, following a single dose at 140 mg, read-out: median half-life (converted)): ~28 h
AUC(0-t) ([2]; 200 mg, 200 mg twice weekly (D1, D2), Cycle/Day 1/1, read-out: AUC0-24 [Mean(CV %)]): 13.9 µM·h
Cmax ([2]; 200 mg, 200 mg twice weekly (D1, D2), Cycle/Day 1/1): 1580 nM
Tmax ([2]; 200 mg, 200 mg twice weekly (D1, D2), Cycle/Day 1/1, time post D2 dosing): 3 h
AUC(0-t) ([2]; 200 mg, 200 mg twice weekly (D1, D2), Cycle/Day 1/15, read-out: AUC0-24 [Mean(CV %)]): 14.5 µM·h
Cmax ([2]; 200 mg, 200 mg twice weekly (D1, D2), Cycle/Day 1/15): 1630 nM
Tmax ([2]; 200 mg, 200 mg twice weekly (D1, D2), Cycle/Day 1/15, time post D16 dosing): 2 h
AUC(0-t) ([2]; 200 mg, 200 mg twice weekly (D1, D4), Cycle/Day 1/1, read-out: AUC0-24 [Mean(CV %)]): 17.5 µM·h
AUC(0-t) ([2]; 200 mg, 200 mg twice weekly (D1, D4), Cycle/Day 1/1, read-out: AUC0-72 [Mean(CV %)]): 39 µM·h
Cmax [2, 6]: 1380 nM
Tmax [2, 6]: 2 h
half-life ([2]; 200 mg, 200 mg twice weekly (D1, D4), Cycle/Day 1/1, read-out: Median t1/2 (range) (converted)): 33 h
AUC(0-t) ([2]; 200 mg, 200 mg twice weekly (D1, D4), Cycle/Day 1/15, read-out: AUC0-24 [Mean(CV %)]): 18.6 µM·h
Cmax [2, 7]: 1230 nM
Tmax [2, 7]: 3 h
half-life ([2]; 200 mg, following a single dose at 200 mg, read-out: median half-life (converted)): ~33 h
half-life ([2]; po, patients, D1, D4 intermittent schedule, read-out: half-life (estimated) (converted)): 25 h
accumulation from day 1 to day 15 ([2]; twice weekly intermittent dosing (D1, D4 or D1, D2)): No accumulation
activated ERK in peripheral blood cells ([3]; all dose levels tested): trend in favor of inhibition
tumor pERK, before versus on treatment ([3]; one patient, no drug for eight days prior to second biopsy, little pre-treatment phosphorylation): no reduction
phosphorylation of ERK in tumor, before versus on treatment ([3]; three cases, drug at steady state, daily dosing): reduction in phosphorylation of cytoplasmic and nuclear ERK
